Reference: patent publication EP4737449A1 (Changchun Genescience Pharmaceutical Co., Ltd., priority 2023, dated 2025)

What follows are compounds tested against T1, p53-Y220C mutant protein (Homo sapiens, UniProt P04637, Y220C) (assay: In vitro DNA binding activity assay (TR-FRET)). Conditions: concentration required to increase the binding activity of protein to DNA by 50%.
T1 construct: The recombinant Y220C p53 DBD protein with his-tag
Format: biochemical
Method in brief: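 His-tagged Y220C p53 DBD was equilibrated with compound 60 min at room temperature, then biotin-DNA, anti-6His-Eu and streptavidin-d2 were added and incubated overnight in the dark. TR-FRET 665/615 nm ratio, background-corrected, was expressed as % activity versus vehicle; SC150 is the concentration raising DNA binding by 50%.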

Structure (SMILES) | SC150 [nM]
CCc1c(C#CCNC(=O)c2cnn(C(C)(C)C)c2N)nn2c(N[C@@H]3CCN(C)C[C@@H]3F)cccc12 [Compound 348, 5-amino-1-tert-butyl-N-[3-(3-ethyl-7-{[(3S,4R)-3-fluoro-1-methylpiperidin-4-yl]amino}-pyrazolo[1,5-a]pyridin-2-yl)prop-2-yn-1-yl]-1H-pyrazole-4-carboxamide] | 28
Cc1cc(N[C@@H]2CCN(C)C[C@@H]2F)n2nc(C#CCNC(=O)c3cnn(C(C)(C)C)c3N)c(CC(F)(F)F)c2c1 [Compound 360, 5-amino-1-tert-butyl-N-[3-(7-{[(3S,4R)-3-fluoro-1-methylpiperidin-4-yl]amino}-5-methyl-3-(2,2,2-trifluoroethyl)pyrazolo[1,5-a]pyridin-2-yl)prop-2-yn-1-yl]-1H-pyrazole-4-carboxamide] | 160
CC(C)(C)n1ncc(C(=O)NCC#Cc2nn3c(NC4CCOCC4)cccc3c2CC(F)(F)F)c1N [Compound 361, 5-amino-1-tert-butyl-N-(3-(7-[(tetrahydro-2H-pyran-4-yl)amino]-3-(2,2,2-trifluoroethyl)pyrazolo[1,5-a]pyridin-2-yl)prop-2-yn-1-yl)-1H-pyrazole-4-carboxamide] | 49
CC(C)c1c(C#CCNC(=O)c2cnn(C(C)(C)C)c2N)nn2c(N[C@@H]3CCN(C)C[C@@H]3F)cccc12 [Compound 362, 5-amino-1-tert-butyl-N-(3-(7-{[(3S,4R)-3-fluoro-1-methylpiperidin-4-yl]amino}-3-(prop-2-yl)pyrazolo[1,5-a]pyridin-2-yl)prop-2-yn-1-yl)-1H-pyrazole-4-carboxamide] | 98
CN1CCC2(CC1)CC(Nc1cccc3c(CC(F)(F)F)c(C#CCNC(=O)c4cnn(C(C)(C)C)c4N)nn13)C2 [Compound 367] | 27
CN1CC2CCC(C1)C2Nc1cccc2c(CC(F)(F)F)c(C#CCNC(=O)c3cnn(C(C)(C)C)c3N)nn12 (centres unmarked) [Compound 368, 5-amino-1-(tert-butyl)-N-(3-(7-((3-methyl-3-azabicyclo[3.2.1]octan-8-yl)amino)-3-(2,2,2-trifluoroethyl)pyrazolo[1,5-a]pyridin-2-yl)prop-2-yn-1-yl)-1H-pyrazole-4-carboxamide] | 57

The next lines start with the values.

SC150 [nM] | Structure (SMILES)
12 | CN1CC[C@@H](Nc2cccc3c(CC(F)(F)F)c(C#CCNC(=O)c4cn(CC5CCCC5)nc4N)nn23)[C@@H](F)C1 [Compound 349]
13 | CN1CC[C@@H](Nc2cccc3c(CC(F)(F)F)c(C#CCNC(=O)c4cn(C5CC5)nc4N)nn23)[C@@H](F)C1 [Compound 350, 3-amino-N-[3-(7-{[(3S,4R)-3-fluoro-1-methylpiperidin-4-yl]amino}-3-(2,2,2-trifluoroethyl)pyrazolo[1,5-a]pyridin-2-yl)prop-2-yn-1-yl]-1-(cyclopropyl)-1H-pyrazole-4-carboxamide]
13 | CN1CC[C@@H](Nc2cccc3c(CC(F)(F)F)c(C#CCNC(=O)c4cn(CC(C)(C)C)nc4N)nn23)[C@@H](F)C1 [Compound 352]
87 | CN1CC[C@@H](Nc2cccc3c(CC(F)(F)F)c(C#CCNC(=O)c4cn(C(C)(C)C)nc4O)nn23)[C@@H](F)C1 [Compound 356, 1-(tert-butyl)-N-[3-(7-{[(3S,4R)-3-fluoro-1-methylpiperidin-4-yl]amino}-3-(2,2,2-trifluoroethyl)pyrazolo[1,5-a]pyridin-2-yl)prop-2-yn-1-yl]-3-hydroxy-1H-pyrazole-4-carboxamide]
30 | CN1CCC(Nc2cccc3c(CC(F)(F)F)c(C#CCNC(=O)c4cnn(C(C)(C)C)c4N)nn23)C1 (centres unmarked) [Compound 366, 5-amino-1-tert-butyl-N-(3-(7-[(1-methylpyrrolidin-3-yl)amino]-3-(2,2,2-trifluoroethyl)pyrazolo[1,5-a]pyridin-2-yl)prop-2-yn-1-yl)-1H-pyrazole-4-carboxamide]
